Results on 1 compound are retold here after patent US11259956B2, “Combination therapy intravaginal rings” (International Partnership For Microbicides, Inc., priority 2013, dated 2022).

Data set [1] relates to wild-type HIV-1 strains and HIV-1 strains harboring different resistance-inducing mutations. To be noted: Das et al., J. Med Chem., 2004; cited from earlier work.
Data set [2] is described as follows: Solubility of dapivirine in water. The class given is physicochemical.

Broadly, the solubility is the dissolved amount per volume that the medium holds. Low values mean little dissolved substance, high ones much dissolved substance. Regarding `Cc1cc(C)c(Nc2ccnc(Nc3ccc(C#N)cc3)n2)c(C)c1` [dapivirine, 4-[[4-[(2,4,6-trimethylphenyl)amino]-2-pyrimidinyl]amino]benzonitrile], the “Activity against HIV-1 strains” value in data set [1] is reported as “potent activity”. For the same compound, in data set [2], the “Solubility in water” value was “virtually insoluble in water” and the solubility was below 1 µg/mL.
